Assay results as given in patent US8415351B2 (priority 2007, dated 2013).
pEC50: −log10 of the molar value.

How the values were obtained:
[1] = test system: genotype 1b-Con1 subgenomic replicon cell line; test: microbe, parasite or virus in culture; assay type: cell-based, HCV; settings: Hepatitis C virus, read-out: EC50 1b
[2] = test system: genotype 1a-H77 subgenomic replicon cell line; test: microbe, parasite or virus in culture; assay type: cell-based, HCV; settings: Hepatitis C virus, read-out: EC50 1a

Structure (SMILES) | pEC50 [1] | pEC50 [2]
COc1c(C=C(F)c2ccc(NS(C)(=O)=O)cc2)cc(N2CCC(=O)NC2=O)cc1C(C)(C)C (racemic) [IA-L1-1.21, N-(4-(2-(3-tert-butyl-5-(2,4-dioxotetrahydropyrimidin-1(2H)-yl)-2-methoxyphenyl)-1-fluorovinyl)phenyl)methanesulfonamide] | > 8.00 | > 8.00
COc1c(/C=C(\F)c2ccc(NS(C)(=O)=O)cc2)cc(N2CCC(=O)NC2=O)cc1C(C)(C)C [IA-L1-1.4, (Z)—N-(4-(2-(3-tert-butyl-5-(2,4-dioxotetrahydropyrimidin-1(2H)-yl)-2-methoxyphenyl)-1-fluorovinyl)phenyl)methanesulfonamide] | > 8.00 | > 8.00
COc1c(/C=C/c2ccc(NS(C)(=O)=O)cc2)cc(-n2ccc(=O)[nH]c2=O)cc1C(C)(C)CO [IB-L1-1.45, (E)-N-(4-(5-(2,4-dioxo-3,4-dihydropyrimidin-1(2H)-yl)-3-(1-hydroxy-2-methylpropan-2-yl)-2-methoxystyryl)phenyl)methanesulfonamide] | > 8.00 | 7.00 to 8.00
COc1c(-c2ccc3c(c2)CCN(NS(C)(=O)=O)C3)cc(-n2ccc(=O)[nH]c2=O)cc1C(C)(C)C [IB-L0-2.43, N-(6-(3-tert-butyl-5-(2,4-dioxo-3,4-dihydropyrimidin-1(2H)-yl)-2-methoxyphenyl)-3,4-dihydroisoquinolin-2(1B)-yl)methanesulfonamide] | 6.00 to 7.00 | < 6.00
COc1c(-c2ccc3c(CNS(C)(=O)=O)noc3c2)cc(-n2ccc(=O)[nH]c2=O)cc1C(C)(C)C [IB-L0-2.45, N-((6-(3-tert-butyl-5-(2,4-dioxo-3,4-dihydropyrimidin-1(2H)-yl)-2-methoxyphenyl)benzo[d]isoxazol-3-yl)methyl)methanesulfonamide] | 6.00 to 7.00 | < 6.00
COc1c(-c2nc3ccccc3s2)cc(N2CCC(=O)NC2=O)cc1C(C)(C)C [IA-L0-2.3, 1-(3-(benzo[d]thiazol-2-yl)-5-tert-butyl-4-methoxyphenyl)dihydro pyrimidine-2,4(1H,3H)-dione] | 6.00 to 7.00 | 6.00 to 7.00
COc1c(CCc2ccc(NS(C)(=O)=O)cc2)cc(N2CCC(=O)NC2=O)cc1C(C)(C)C [IA-L5-2-1.1, N-(4-(3-tert-butyl-5-(2,4-dioxotetrahydropyrimidin-1(2H)-yl)-2-methoxyphenethyl)phenyl)methanesulfonamide] | 7.00 to 8.00 | 6.00 to 7.00
COc1c(N2Cc3ccc(NS(C)(=O)=O)cc3C2)cc(-n2ccc(=O)[nH]c2=O)cc1C(C)(C)C [IB-L0-2.79, N-(2-(3-tert-butyl-5-(2,4-dioxo-3,4-dihydropyrimidin-1(2H)-yl)-2-methoxyphenyl)isoindolin-5-yl)methanesulfonamide] | 6.00 to 7.00 | 6.00 to 7.00
COc1c(-c2ccc3c(c2)CC[C@]3(F)CNS(C)(=O)=O)cc(-n2ccc(=O)[nH]c2=O)cc1C(C)(C)C [IB-L0-2.10, (R)—N-((5-(3-tert-butyl-5-(2,4-dioxo-3,4-dihydropyrimidin-1(2H)-yl)-2-methoxyphenyl)-1-fluoro-2,3-dihydro-1H-inden-1-yl)methyl)methanesulfonamide] | > 8.00 | > 8.00
COc1c(/C=C/c2ccc(NS(C)(=O)=O)cc2C(=O)O)cc(-n2ccc(=O)[nH]c2=O)cc1C(C)(C)C [IB-L1-1.4, (E)-2-(3-tert-butyl-5-(2,4-dioxo-3,4-dihydropyrimidin-1(2H)-yl)-2-methoxystyryl)-5-(methylsulfonamido)benzoic acid] | > 8.00 | 7.00 to 8.00
CCOc1c(/C=C/c2ccc(NS(C)(=O)=O)cc2)cc(-n2ccc(=O)[nH]c2=O)cc1C(C)(C)C [IB-L1-1.30, (E)-N-(4-(3-tert-butyl-5-(2,4-dioxo-3,4-dihydropyrimidin-1(2H)-yl)-2-ethoxystyryl)phenyl)methanesulfonamide] | 7.00 to 8.00 | 6.00 to 7.00
COc1c(-c2nc3ccc(NS(C)(=O)=O)cc3s2)cc(N2CCC(=O)NC2=O)cc1C(C)(C)C [IA-L0-2.2, N-(2-(3-tert-butyl-5-(2,4-dioxotetrahydropyrimidin-1(2H)-yl)-2-methoxyphenyl)benzo[d]thiazol-6-yl)methanesulfonamide] | 7.00 to 8.00 | 6.00 to 7.00
COc1c(/C=C/c2ccc(NS(C)(=O)=O)cc2)cc(-n2ccc(=O)[nH]c2=O)cc1-c1ccsc1 [IB-L1-1.47, (E)-N-(4-(5-(2,4-dioxo-3,4-dihydropyrimidin-1(2H)-yl)-2-methoxy-3-(thiophen-3-yl)styryl)phenyl)methanesulfonamide] | 7.00 to 8.00 | 6.00 to 7.00
COc1c(-c2nc3cc([N+](=O)[O-])ccc3o2)cc(N2CCC(=O)NC2=O)cc1C(C)(C)C [IA-L0-2.7, 1-(3-tert-butyl-4-methoxy-5-(5-nitrobenzo[d]oxazol-2-yl)phenyl) dihydropyrimidine-2,4(1H,3H)-dione] | 6.00 to 7.00 | < 6.00
COc1c(-c2ccc3cc(NS(C)(=O)=O)ccc3c2)cc(-n2ccc(=O)[nH]c2=O)cc1S(C)(=O)=O [IB-L0-2.68, N-(6-(5-(2,4-dioxo-3,4-dihydropyrimidin-1(2H)-yl)-2-methoxy-3-(methylsulfonyl)phenyl)naphthalen-2-yl)methanesulfonamide] | 6.00 to 7.00 | < 6.00
COc1c(/C=C/c2ccc(NS(C)(=O)=O)c(F)c2)cc(N2CCC(=O)NC2=O)cc1C(C)(C)C [IA-L1-1.26, (E)-N-(4-(3-tert-butyl-5-(2,4-dioxotetrahydropyrimidin-1(2H)-yl)-2-methoxystyryl)-2-fluorophenyl)methanesulfonamide] | 7.00 to 8.00 | 7.00 to 8.00
COc1c(/C=C(/F)c2ccc(NS(C)(=O)=O)cc2)cc(N2CCC(=O)NC2=O)cc1C(C)(C)C [IA-L1-1.5, (E)-N-(4-(2-(3-tert-butyl-5-(2,4-dioxotetrahydropyrimidin-1(2H)-yl)-2-methoxyphenyl)-1-fluorovinyl)phenyl)methanesulfonamide] | > 8.00 | 7.00 to 8.00
COC(=O)C(C)(C)c1cc(-n2ccc(=O)[nH]c2=O)cc(-c2ccc3cc(NS(C)(=O)=O)ccc3c2)c1OC [IB-L0-2.70, methyl 2-(5-(2,4-dioxo-3,4-dihydropyrimidin-1(2H)-yl)-2-methoxy-3-(6-(methylsulfonamido)naphthalen-2-yl)phenyl)-2-methylpropanoate] | 6.00 to 7.00 | < 6.00
COCC(C)(C)c1cc(-n2ccc(=O)[nH]c2=O)cc(-c2ccc3cc(NS(C)(=O)=O)ccc3c2)c1OC [IB-L0-2.66, N-(6-(5-(2,4-dioxo-3,4-dihydropyrimidin-1(2H)-yl)-2-methoxy-3-(1-methoxy-2-methylpropan-2-yl)phenyl)naphthalen-2-yl)methanesulfonamide] | 7.00 to 8.00 | 6.00 to 7.00
COc1c(-c2ccc3ncsc3c2)cc(-n2ccc(=O)[nH]c2=O)cc1C(C)(C)C [IB-L0-2.33, 1-(3-(benzo[d]thiazol-6-yl)-5-tert-butyl-4-methoxyphenyl)pyrimidine-2,4(1H,3H)-dione] | 6.00 to 7.00 | 6.00 to 7.00
COc1c(-c2ccoc2)cc(-n2ccc(=O)[nH]c2=O)cc1-c1ccc2cc(NS(C)(=O)=O)ccc2c1 [IB-L0-2.64, N-(6-(5-(2,4-dioxo-3,4-dihydropyrimidin-1(2H)-yl)-3-(furan-3-yl)-2-methoxyphenyl)naphthalen-2-yl)methanesulfonamide] | > 8.00 | 6.00 to 7.00
COC(=O)c1cc(-n2ccc(=O)[nH]c2=O)cc(-c2ccc3cc(NS(C)(=O)=O)ccc3c2)c1OC [IB-L0-2.72, methyl 5-(2,4-dioxo-3,4-dihydropyrimidin-1(2H)-yl)-2-methoxy-3-(6-(methylsulfonamido)naphthalen-2-yl)benzoate] | 6.00 to 7.00 | < 6.00
COc1c(Br)cc(-n2ccc(=O)[nH]c2=O)cc1/C=C/c1ccc(NS(C)(=O)=O)cc1 [IB-L1-1.52, (E)-N-(4-(3-bromo-5-(2,4-dioxo-3,4-dihydropyrimidin-1(2H)-yl)-2-methoxystyryl)phenyl)methanesulfonamide] | 6.00 to 7.00 | < 6.00
COc1c(-c2ccc3nc(NS(C)(=O)=O)sc3c2)cc(-n2ccc(=O)[nH]c2=O)cc1C(C)(C)C [IB-L0-2.28, N-(6-(3-tert-butyl-5-(2,4-dioxo-3,4-dihydropyrimidin-1(2H)-yl)-2-methoxyphenyl)benzo[d]thiazol-2-yl)methanesulfonamide] | 6.00 to 7.00 | < 6.00
COc1c(-c2nc3cc(NS(C)(=O)=O)ccc3o2)cc(-n2ccc(=O)[nH]c2=O)cc1C(C)(C)C [IB-L0-2.6, N-(2-(3-tert-butyl-5-(2,4-dioxo-3,4-dihydropyrimidin-1(2H)-yl)-2-methoxyphenyl)benzo[d]oxazol-5-yl)methanesulfonamide] | 7.00 to 8.00 | 6.00 to 7.00
COc1c(/C=C/c2ccc(NS(C)(=O)=O)cc2C(=O)N2CCC2)cc(-n2ccc(=O)[nH]c2=O)cc1C(C)(C)C [IB-L1-1.22, N-(3-(azetidine-1-carbonyl)-4-{(E)-2-[3-tert-butyl-5-(2,4-dioxo-3,4-dihydro-2H-pyrimidin-1-yl)-2-methoxy-phenyl]-vinyl}-phenyl)-methanesulfonamide] | > 8.00 | 7.00 to 8.00
COc1c(/C=C/c2ccc(NS(C)(=O)=O)cc2C(=O)N(C)C2CCS(=O)(=O)C2)cc(-n2ccc(=O)[nH]c2=O)cc1C(C)(C)C (centres unmarked) [IB-L1-1.18, 2-{(E)-2-[3-tert-butyl-5-(2,4-dioxo-3,4-dihydro-2H-pyrimidin-1-yl)-2-methoxy-phenyl]-vinyl}-N-(1,1-dioxo-tetrahydro-1lambda*6*-thiophen-3-yl)-5-methanesulfonylamino-N-methyl-benzamide] | 7.00 to 8.00 | 7.00 to 8.00
COc1c(-c2ccc3c(c2)CCN3S(C)(=O)=O)cc(-n2ccc(=O)[nH]c2=O)cc1C(C)(C)C [IB-L0-2.32, 1-(3-tert-butyl-4-methoxy-5-(1-(methylsulfonyl)indolin-5-yl)phenyl)pyrimidine-2,4(1H,3H)-dione] | 7.00 to 8.00 | 6.00 to 7.00
